Laboratory results from patent US20260226417A1, “METHOD FOR INHIBITING AGING OF STEM CELLS” (ENCELL CO., LTD, priority 2023, published 2026).

Experiments:
[1] = tested on: replicative senescence-induced human umbilical cord-derived mesenchymal stem cells (P18); test: Cell proliferation by CCK-8 assay, 6 days, replicative senescence model (P18); assay type: cell-based; settings: 160 μM
Procedure: Example 4. Validation of gut microbiota-derived metabolite candidate for senescence control Control cells (P5) and replicative senescence-induced human umbilical cord-derived mesenchymal stem cells (P18) were treated with nervonic acid (160 μM) to analyze the effects of the gut microbiota-derived metabolite having the ability to control senescence of stem cells on the proliferation of stem cells and cell size.
Specifically, control cells (p5) and replicative senescence-induced human umbilical cord-derived mesenchymal stem cells (P18) were exposed to nervonic acid (160 μM) in culture medium, followed by culture for 6 days while replacing the medium every 3 days, and cell proliferation was assessed using CCK-8 assay.

[2] = tested on: replicative senescence model of human umbilical cord-derived mesenchymal stem cells (P18); test: β-galactosidase staining, extent of senescence, replicative senescence model (P18); assay type: cell-based; design: dose or concentration left out as unconfirmed
Procedure: Compared to the control cells (P5) in which the extent of senescence was 0.21 % of the total, the extent of senescence in the senescence-induced mesenchymal stem cells (P18) was increased to 42.44% of the total, confirming the progression of replicative senescence (FIGs. 1a and 1b). Specifically, individual cells (5×10^4/well) were suspended in a 6-well plate and stabilized for 24 hours, followed by adding β-galactosidase staining solution and staining for 24 hours, after which the extent of senescence was measured under a microscope.
Therefore, it was confirmed that this concentration was an optimal concentration that inhibited the extent of senescence by inducing apoptosis specifically in the replicative senescence model (P18) without affecting the cytotoxicity of the control cells (P5).

[3] = tested on: Annexin V, an apoptosis marker, in muscle tissue; test: Annexin V immunohistochemical staining in muscle tissue of muscle disease mouse model after injection of treated P18 cells; assay type: in vivo; settings: P18 cells treated with 160 μM for 72 hours, 5×10^4 cells per mouse via tail vein, one week after injection
Procedure: (§1) A replicative senescence model (P18) was treated with nervonic acid (160 μM) and then injected into a muscle disease mouse model to assess the effect of nervonic acid treatment on the therapeutic efficacy of the replicative senescence model (P18) in terms of reducing apoptosis in muscle tissue.
Specifically, the muscle disease mouse model used was C57BL/10ScSn-Dmdmdx/J (mdx mouse) , and C57BL/10J with the same genetic background was used as a control group. All experiments were conducted using mice aged 4 to 5 months. The cells to be injected were human umbilical cord-derived young mesenchymal stem cells (control group) (P5) and replicative senescence model (P18). […]
In order to assess the extent of apoptosis in the muscle tissue of a muscle disease mouse model after injecting mesenchymal stem cells for each condition, the extent of apoptosis in the tissue was determined through immunohistochemical staining for Annexin V, an apoptosis marker. […] Then, the secondary antibody (fluorescence-labeled polymer anti-rabbit) was added and incubated for […] followed by mounting, DAPI staining, washing, and then observation and photography under a fluorescence microscope.

[4] = tested on: replicative senescence model of human umbilical cord-derived mesenchymal stem cells (P18); test: Cytotoxicity by CCK-8 assay, replicative senescence model (P18); assay type: cell-based; settings: 160 μM, P18, CCK-8
[5] = tested on: MyHC (myosin heavy chain), a marker of muscle regeneration, in muscle tissue; test: MyHC Western blotting in muscle tissue of muscle disease mouse model after injection of treated P18 cells; assay type: in vivo; settings: P18 cells treated with 160 μM for 72 hours, injected via tail vein, mdx mouse, one week after injection
Procedure: (§2) Specifically, the muscle disease mouse model used was C57BL/10ScSn-Dmdmdx/J (mdx mouse) , and C57BL/10J with the same genetic background was used as a control group. All experiments were conducted using mice aged 4 to 5 months. The cells to be injected were human umbilical cord-derived young mesenchymal stem cells (control group) (P5) and replicative senescence model (P18). More specifically, the replicative senescence model (P18) was treated with 160 μM nervonic acid or an equivalent amount of DMSO for 72 hours during culture at P18 and then dissociated as single cells with 0.25% Trypsin/EDTA (Gibco, MT, USA), and 5×10^4 cells per mouse were injected via the tail vein. One week after injection, both tibial muscles of the mouse model were harvested and fixed in 4% paraformaldehyde or frozen.
as §1, with “Example 10. Comparative analysis of muscle regeneration promotion efficacy after injection of various human tissue-derived mesenchymal stem cells treated with nervonic acid into muscle disease mouse model A” for “A”, “muscle regeneration” for “reducing apoptosis”
In addition, the expression of MyHC was assessed at the protein level. […]

[6] = tested on: senescence markers P16 and P21; test: Western blotting of P16 and P21 in replicative senescence model (P18); assay type: cell-based, human; settings: 160 μM
Procedure: In order to verify the anti-senescence efficacy of nervonic acid, the expression levels of senescence-related markers in a control group (P5) and a replicative senescence model (P18) were measured after treatment with nervonic acid (160 μM).
Specifically, Western blotting performed in this example is as follows: cells were collected, and the cell membrane was broken using RIPA buffer, followed by centrifugation to collect the supernatant. Intracellular proteins were quantified using the Bradford assay (Bio-Rad, USA), and 20 μg of protein for each sample was loaded onto the gel, followed by electrophoresis using SDS. After transferring the protein to a polyvinylidene fluoride (PVDF) membrane, 1× TBST (Tris-buffered saline with 0.1% Tween 20) solution containing 5% skim milk (BD Difco, USA) was added and incubated at room temperature for 1 hour. Thereafter, P16 (1: 1000, Cell Signaling, USA), P21 (1: 1000, Cell Signaling, USA), and β-actin (1:5000; Santa Cruz, USA) antibodies were added and incubated overnight at 4° C. Then, the secondary antibody (anti-rabbit IgG-HRP; ABClon, Korea) was added and incubated at room temperature for one hour. Afterwards, the blots were visualized using ECL (Bio-Rad, USA) and assessed.

[7] = tested on: MyHC (myosin heavy chain), a marker of muscle regeneration, in muscle tissue; test: MyHC immunohistochemical staining in muscle tissue of muscle disease mouse model after injection of treated P18 cells; assay type: in vivo; settings: P18 cells treated with 160 μM for 72 hours, injected via tail vein, mdx mouse, one week after injection
Procedure: as §2
Example 10. […]
In order to assess the extent of muscle regeneration in the muscle tissue of a muscle disease mouse model after injecting mesenchymal stem cells for each condition, the extent of muscle regeneration in the tissue was determined through immunohistochemical staining for MyHC (myosin heavy chain), a marker of muscle regeneration. […]

Compound: CCCCCCCC/C=C\CCCCCCCCCCCCCC(=O)O [nervonic acid]
- cell proliferation [1]: proliferation was significantly reduced
- extent of senescence (β-galactosidase staining), fold decrease compared to before treatment [2]: 0.41±0.04 fold
- Annexin V expression level (immunohistochemical staining) compared to mdx control group [3]: significantly reduced
- cell viability, fold decrease compared to before treatment [4]: 0.68±0.03 fold
- MyHC protein expression level (Western blotting) compared to DMSO treatment group [5]: significantly increased
- P16 protein expression level, fold compared to before treatment [6]: 0.65±0.07 fold
- P21 protein expression level, fold compared to before treatment ([6]; not significant): 0.82±0.07 fold
- MyHC expression level (immunohistochemical staining) compared to injection group treated with DMSO [7]: slightly increased
